Activity calls are given as the source filed them. The rule behind the calls is not given here.
Legend:
HL-60 = assay: Antiproliferative activity against human HL60 cells at 30 uM after 48 hrs by MTS assay; format: functional, cell-based
Lactoylglutathione lyase [1] = molecular target: T1, Lactoylglutathione lyase (Homo sapiens, UniProt Q04760); assay: Inhibition of human recombinant His-tagged Glyoxalase 1 expressed in Sf21-Baculovirus system at 100 uM
Target sequence in this assay (Q04760 2-184 limits assumed): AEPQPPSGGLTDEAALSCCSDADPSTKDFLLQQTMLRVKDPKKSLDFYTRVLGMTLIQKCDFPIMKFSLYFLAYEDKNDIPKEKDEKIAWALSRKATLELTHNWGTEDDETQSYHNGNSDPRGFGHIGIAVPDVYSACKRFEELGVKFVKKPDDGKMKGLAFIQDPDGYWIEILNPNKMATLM

Lactoylglutathione lyase [2] = molecular target: T1, Lactoylglutathione lyase; assay: Inhibition of human recombinant His-tagged Glyoxalase 1 expressed in Sf21-Baculovirus system
Target sequence in this assay (Q04760 whole entry): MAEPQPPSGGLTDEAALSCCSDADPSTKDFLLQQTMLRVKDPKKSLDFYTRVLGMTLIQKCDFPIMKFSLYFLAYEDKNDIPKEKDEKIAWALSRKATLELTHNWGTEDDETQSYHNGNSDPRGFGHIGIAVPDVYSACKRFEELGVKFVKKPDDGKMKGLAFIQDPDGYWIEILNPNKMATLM

Row | SMILES | Activity (HL-60) | inhibition (Lactoylglutathione lyase [1]) | IC50 (Lactoylglutathione lyase [2])
1 | O=C1C[C@@H](c2ccc(O)cc2)Oc2cc(O)cc(O)c21 | Active | 50% | –
2 | O=c1c(O)c(-c2cc(O)c(O)c(O)c2)oc2cc(O)cc(O)c12 | Active | – | –
3 | O=c1cc(-c2ccc(O)c(O)c2)oc2cc(O)cc(O)c12 [LUTEOLIN] | Active | – | 7.7 µM
4 | O=c1c(O)c(-c2ccc(O)c(O)c2)oc2cc(O)cc(O)c12 | Active | – | –
5 | N[C@@H](CCC(=O)N[C@@H](CSCc1ccc(Br)cc1)C(=O)NCC(=O)OC1CCCC1)C(=O)OC1CCCC1 | Active | – | –
6 | O=c1c(O[C@@H]2O[C@H](CO)[C@H](O)[C@H](O)[C@H]2O)c(-c2ccc(O)c(O)c2)oc2cc(O)cc(O)c12 | Active | – | –
7 | COc1c(O[C@H]2O[C@H](C(=O)O)[C@@H](O)[C@H](O)[C@H]2O)cc2oc(-c3ccccc3)cc(=O)c2c1O | Active | – | –
8 | O=c1cc(-c2ccccc2)oc2cc(O)c(O)c(O)c12 [BAICALEIN] | Active | – | 11 µM
9 | O=C(O)[C@H]1O[C@@H](Oc2cc3oc(-c4ccccc4)cc(=O)c3c(O)c2O)[C@H](O)[C@@H](O)[C@@H]1O | Active | – | –
10 | O=c1c(O)c(-c2ccc(O)cc2)oc2cc(O)cc(O)c12 [KAEMPFEROL] | Active | 60% | 20.6 µM

From ChEMBL document CHEMBL1157146, “Structure-activity relationship of human GLO I inhibitory natural flavonoids and their growth inhibitory effects” (Bioorg Med Chem, 2008)
